# According to patent US20250099491A1, “PREVENTION OR TREATMENT OF CARDIOVASCULAR DISEASES WITH HIGH PENETRATION PRODRUGS OF ASPIRIN AND OTHER NSAIDS” (Techfields Inc., priority 2022, published 2025):
# Test system: patients with ischemic strokes
# Test: Phase 2 clinical study of spray in patients with ischemic strokes
# Assay type: in vivo, human
# Conditions: for RICA (near-wall): Maximal IMT of right internal carotid artery / LCCA (far-wall): Maximal IMT of left common carotid artery / LCCA (near-wall): Maximal IMT of left common carotid artery / LICA (far-wall): Maximal IMT of left internal carotid artery / LICA (near-wall): Maximal IMT of left internal carotid artery / RCCA (far-wall): Maximal IMT of right common carotid artery / RCCA (near-wall): Maximal IMT of right common carotid artery / RICA (far-wall): Maximal IMT of right internal carotid artery: ultrasonography
# Description: Each patient enrolled in Group A was administered the investigational drug in a double-blind manner for 16 weeks starting between 3 and 60 days after the onset of stroke symptoms (Day 1 of the study). The patients and/or their caregivers were instructed how to apply the investigational drug accurately so that patients or their caregivers would administer 20 sprays/dose of either the investigational drug or placebo twice daily (approximately every 12 hours) for a total daily dose of 280 mg of investigational drug. The 20 sprays of investigational drug were administered as follows: 4 sprays around the neck, 2 sprays to the left shoulder, 2 sprays to the right shoulder, 6 sprays to the chest, 3 sprays to the left leg, and 3 sprays to the right leg. Each spray was sprayed on a different area of the skin to reach maximum absorption. The patient would wait for at least 5 minutes to dress after the last spray so that the skin became completely dry.
# Patients were asked to return to the study site at Weeks 4, 8, 12, and 16 for efficacy and safety assessments. After the Week 16 assessments had been performed, patients would start the open-label period of the study the next day and receive active treatment in an open-label manner through the end of the study (EOS) at Week 32. That is, patients who were receiving active treatment would continue to receive active treatment, and patients who were receiving placebo would switch to active treatment for the remaining 16 weeks of the study. Patients would receive only 1 dose of investigational drug on the Week 16 visit day. Patients would return to the study site at Week 24 and Week 32 (EOS) for efficacy and safety assessments. An Early Termination visit would occur if the patient was discontinued from the study prematurely. Patients would have a follow-up visit approximately 14 days after the Early Termination visit or the Week 32 (EOS) visit.
# The spray bottle deposits […] of spray solution and 7 mg 2-(diethylamino)ethyl acetoxybenzoate free base per spray on the skin. Subjects were to apply each spray to a different skin area around the neck, chest, legs and arms based on the randomized dose level assigned.
# The treatment was administered twice daily (approximately every 12 hours) starting on Day 1 of the study through the Week 16 visit. Each spray was sprayed on a different area of the skin to reach maximum absorption.
# Group A administered the 20 sprays of investigational drug as follows: 4 sprays around the neck, 2 sprays to the left shoulder, 2 sprays to the right shoulder, 6 sprays to the chest, 3 sprays to the left leg, and 3 sprays to the right leg twice daily for a total of 40 sprays (280 mg)/day. Each spray was sprayed on a different area of the skin to reach maximum absorption.
# (§1) Group B administered the investigational drug as follows: 2 sprays to the front of the neck, 1 spray to the left side of the neck, 1 spray to the right side of the neck, 6 sprays to the chest close to the neck twice daily for a total of 20 sprays (140 mg)/day. Each spray was sprayed on a different area of the skin to reach maximum absorption.
# as §1, with “C” for “B”, “1 spray” for “2 sprays”, “2” for “6”, “chest” for “chest close to the neck”, “10” for “20”, “(70 mg/day).” for “(140 mg)/day.”
# The primary efficacy endpoint is the mRS score at Week 16 dichotomized as ‘success’ (0 to 2) or failure (>2) for all randomized patients at Week 16.
# The mRS score was assessed at screening; Day 1 (baseline); Weeks 4, 8, 12, 16, 24, and 32; Early Termination Visit (if applicable) and Follow-Up Visit.
# The mRS score measures the patient's functional level of activity and is dichotomized as a favorable outcome (score=0-2) versus unfavorable (score […]). […]
# [1] = 10 Sprays (70 mg/dose bid), Week 24
# [2] = 10 Sprays (70 mg/dose bid), Week 32
# [3] = 10 Sprays (70 mg/dose bid), baseline
# [4] = 20 Sprays (140 mg/dose bid), Baseline
# [5] = 20 Sprays (140 mg/dose bid), Week 4
# [6] = 20 Sprays (140 mg/dose bid), Week 8
# [7] = 20 Sprays (140 mg/dose bid), Week 16
# [8] = 20 Sprays (140 mg/dose bid), Week 24
# [9] = 20 Sprays (140 mg/dose bid), Week 32
# [10] = 20 Sprays (140 mg/dose bid), baseline
# [11] = during the study, all three doses
smiles,measurement,setting,value
CCN(CC)CCOC(=O)c1ccccc1OC(C)=O.Cl [Compound-1],RICA (near-wall): Maximal IMT of right internal carotid artery,"10 Sprays (70 mg/dose bid), Week 16",0.9 ± 0.5 mm
same,Modified Rankin Scale Score (mRS),[1],1.5 ± 0.5
same,National Institute of Health Stroke Scale,[1],1.6 ± 0.6
same,Modified Rankin Scale Score (mRS),[2],1.4 ± 0.5
same,National Institute of Health Stroke Scale,[2],1.3 ± 0.4
same,LCCA (far-wall): Maximal IMT of left common carotid artery,[2],1.7 ± 0.8 mm
same,LCCA (near-wall): Maximal IMT of left common carotid artery,[2],1.2 ± 0.6 mm
same,LICA (far-wall): Maximal IMT of left internal carotid artery,[2],0.6 ± 0.3 mm
same,LICA (near-wall): Maximal IMT of left internal carotid artery,[2],0.7 ± 0.4 mm
same,RCCA (far-wall): Maximal IMT of right common carotid artery,[2],1.3 ± 0.8 mm
same,RCCA (near-wall): Maximal IMT of right common carotid artery,[2],1.3 ± 0.7 mm
same,RICA (far-wall): Maximal IMT of right internal carotid artery,[2],0.8 ± 0.2 mm
same,RICA (near-wall): Maximal IMT of right internal carotid artery,[2],0.7 ± 0.4 mm
same,Modified Rankin Scale Score (mRS),[3],3.5 ± 0.5
same,National Institute of Health Stroke Scale,[3],5.9 ± 2.0
same,LCCA (far-wall): Maximal IMT of left common carotid artery,[4],6.5 ± 2.0 mm
same,LCCA (near-wall): Maximal IMT of left common carotid artery,[4],7.6 ± 1.6 mm
same,LICA (far-wall): Maximal IMT of left internal carotid artery,[4],5.7 ± 1.7 mm
same,LICA (near-wall): Maximal IMT of left internal carotid artery,[4],5.6 ± 1.7 mm
same,RCCA (far-wall): Maximal IMT of right common carotid artery,[4],8.8 ± 2.3 mm
same,RCCA (near-wall): Maximal IMT of right common carotid artery,[4],7.5 ± 1.8 mm
same,RICA (far-wall): Maximal IMT of right internal carotid artery,[4],4.7 ± 1.6 mm
same,RICA (near-wall): Maximal IMT of right internal carotid artery,[4],4.9 ± 1.3 mm
same,Modified Rankin Scale Score (mRS),[5],2.1 ± 0.5
same,National Institute of Health Stroke Scale,[5],4.6 ± 1.6
same,Modified Rankin Scale Score (mRS),[6],1.8 ± 0.4
same,National Institute of Health Stroke Scale,[6],3.0 ± 1.1
same,Modified Rankin Scale Score (mRS),[7],1.4 ± 0.5
same,National Institute of Health Stroke Scale,[7],1.9 ± 0.9
same,LCCA (far-wall): Maximal IMT of left common carotid artery,[7],1.2 ± 0.6 mm
same,LCCA (near-wall): Maximal IMT of left common carotid artery,[7],1.3 ± 0.5 mm
same,LICA (far-wall): Maximal IMT of left internal carotid artery,[7],0.6 ± 0.4 mm
same,LICA (near-wall): Maximal IMT of left internal carotid artery,[7],0.7 ± 0.3 mm
same,RCCA (far-wall): Maximal IMT of right common carotid artery,[7],1.4 ± 0.3 mm
same,RCCA (near-wall): Maximal IMT of right common carotid artery,[7],1.2 ± 0.5 mm
same,RICA (far-wall): Maximal IMT of right internal carotid artery,[7],0.6 ± 0.2 mm
same,RICA (near-wall): Maximal IMT of right internal carotid artery,[7],0.8 ± 0.3 mm
same,Modified Rankin Scale Score (mRS),[8],1.3 ± 0.5
same,National Institute of Health Stroke Scale,[8],1.4 ± 0.6
same,Modified Rankin Scale Score (mRS),[9],1.3 ± 0.4
same,National Institute of Health Stroke Scale,[9],1.1 ± 0.3
same,LCCA (far-wall): Maximal IMT of left common carotid artery,[9],1.1 ± 0.7 mm
same,LCCA (near-wall): Maximal IMT of left common carotid artery,[9],0.8 ± 0.5 mm
same,LICA (far-wall): Maximal IMT of left internal carotid artery,[9],0.5 ± 0.3 mm
same,LICA (near-wall): Maximal IMT of left internal carotid artery,[9],0.6 ± 0.3 mm
same,RCCA (far-wall): Maximal IMT of right common carotid artery,[9],1.0 ± 0.5 mm
same,RCCA (near-wall): Maximal IMT of right common carotid artery,[9],0.9 ± 0.4 mm
same,RICA (far-wall): Maximal IMT of right internal carotid artery,[9],0.5 ± 0.3 mm
same,RICA (near-wall): Maximal IMT of right internal carotid artery,[9],0.6 ± 0.5 mm
same,Modified Rankin Scale Score (mRS),[10],3.6 ± 0.5
same,National Institute of Health Stroke Scale,[10],6.1 ± 2.3
same,Mean and median blood pressures,[11],remained unchanged
same,"upper GI tract ulcer complication (bleeding episode, perforation, or gastric outlet obstruction)",[11],No notable
same,"skin irritation, total incidences","mild, all three doses",6
same,improvement of atherosclerosis,"neck arteries by ultrasonography, spray vs placebo",can reverse atherosclerosis
same,"functional recovery post strokes (results of BI, words)",spray vs placebo,can improve the functional recovery post strokes
same,"functional recovery post strokes (results of NIHSS, words)",spray vs placebo,can improve the functional recovery post strokes
same,"functional recovery post strokes (results of mRS, words)",spray vs placebo,can improve the functional recovery post strokes
same,"Gastrointestinal disorders, incidences in the study","very mild, none appeared to be drug related, all three doses",15
